Test results published in US7396837B2, “Antitumoral analogs of lamellarins” (Pharma Mar, S.A.U., priority 2002, dated 2008).
Read-outs that look alike come from different tables or passages of the source.

Columns and labels:
Type in all cases: cell-based
IGROV-ET = experiment: SRB colorimetric cell growth inhibition assay, IGROV-ET (ET-743 resistant); details: IGROV-ET; for GI50: GI=growth inhibition, read-out: GI50 IGROV-ET; for CC50: read-out: LC50 IGROV-ET
How it was run: (§1)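 Triplicate-well SRB colorimetry following continuous sample exposure of human tumour cells; reported parameters are GI, TGI for cytostatic effect, and LC for cytotoxic effect.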

HT-29 = experiment: SRB colorimetric cell growth inhibition assay, HT-29; details: for GI50: GI=growth inhibition, read-out: GI50 HT-29; for CC50: read-out: LC50 HT-29; for IC (TGI): read-out: TGI HT-29
How it was run: as §1

LoVo-Dox = experiment: SRB colorimetric cell growth inhibition assay, LoVo-Dox (MDR); details: LOVO-DOX; for CC50: read-out: LC50 LOVO-DOX; for IC (TGI): read-out: TGI LOVO-DOX; for GI50: GI=growth inhibition, read-out: GI50 LOVO-DOX
How it was run: as §1

PANC-1 = experiment: SRB colorimetric cell growth inhibition assay, PANC-1; details: for CC50: read-out: LC50 PANC-1; for IC (TGI): read-out: TGI PANC-1; for GI50: GI=growth inhibition, read-out: GI50 PANC-1
How it was run: as §1

DU-145 = experiment: SRB colorimetric cell growth inhibition assay, DU-145; details: for GI50: GI=growth inhibition, read-out: GI50 DU-145; for CC50: read-out: LC50 DU-145
How it was run: as §1

LoVo = experiment: SRB colorimetric cell growth inhibition assay, LoVo; details: for CC50: read-out: LC50 LOVO; for IC (TGI): read-out: TGI LOVO; for GI50: GI=growth inhibition, read-out: GI50 LOVO
How it was run: as §1

LNCaP = experiment: SRB colorimetric cell growth inhibition assay, LNCaP; details: LN-caP; for GI50: GI=growth inhibition, read-out: GI50 LN-caP; for CC50: read-out: LC50 LN-caP
How it was run: as §1

A-549 = experiment: SRB colorimetric cell growth inhibition assay, A-549; details: for GI50: GI=growth inhibition, read-out: GI50 A-549; for CC50: read-out: LC50 A-549; for IC (TGI): read-out: TGI A-549
How it was run: as §1

HeLa = experiment: SRB colorimetric cell growth inhibition assay, HeLa; details: Homo sapiens, HeLa; for GI50: GI=growth inhibition, read-out: GI50 HELA; for CC50: read-out: LC50 HELA; for IC (TGI): read-out: TGI HELA
How it was run: as §1

SK-MEL-28 = experiment: SRB colorimetric cell growth inhibition assay, SK-MEL-28; details: for GI50: GI=growth inhibition, read-out: GI50 MEL-28; for CC50: read-out: LC50 MEL-28
How it was run: as §1

K-562 = experiment: SRB colorimetric cell growth inhibition assay, K-562; details: for CC50: read-out: LC50 K-562; for IC (TGI): read-out: TGI K-562; for GI50: GI=growth inhibition, read-out: GI50 K-562
How it was run: as §1

IGROV = experiment: SRB colorimetric cell growth inhibition assay, IGROV; details: IGROV; for GI50: GI=growth inhibition, read-out: GI50 IGROV; for CC50: read-out: LC50 IGROV
How it was run: as §1

SK-BR-3 = experiment: SRB colorimetric cell growth inhibition assay, SK-BR-3; details: for GI50: GI=growth inhibition, read-out: GI50 SK-BR-3; for CC50: read-out: LC50 SK-BR-3
How it was run: as §1

HeLa-APL = experiment: SRB colorimetric cell growth inhibition assay, HeLa-APL (aplidine resistant); details: Homo sapiens, HELA-APL; for GI50: GI=growth inhibition, read-out: GI50 HELA-APL; for CC50: read-out: LC50 HELA-APL; for IC (TGI): read-out: TGI HELA-APL
How it was run: as §1

[1] = cell killing (cytotoxic effect)
[2] = total growth inhibition (cytostatic effect)
[3] = Homo sapiens, LC=cell killing (cytotoxic effect)
[4] = LC=cell killing (cytotoxic effect)
[5] = TGI=total growth inhibition (cytostatic effect)

COc1cc(-c2c3c4cc(OC)c(OC(=O)[C@@H](N)Cc5ccccc5)cc4oc(=O)c3n3ccc4c(OC(=O)[C@@H](N)Cc5ccccc5)c(OC)c(OC)cc4c23)ccc1OC(=O)[C@@H](N)Cc1ccccc1 [Compound 207]
GI50 (IGROV-ET): 0.0436 µM | CC50 (IGROV-ET; [1]): 2.38 µM | TGI IGROV-ET (IGROV-ET; [2]): 2.86E−07 Molar | GI50 (HT-29; HT-29): 3.77 µM | CC50 (HT-29; Homo sapiens, HT-29, HT-29, cell killing (cytotoxic effect)): 9.26 µM | IC (TGI) (HT-29; Homo sapiens, HT-29, HT-29, total growth inhibition (cytostatic effect)): 9.26 µM | CC50 (LoVo-Dox; Homo sapiens, cell killing (cytotoxic effect)): 9.26 µM | IC (TGI) (LoVo-Dox; Homo sapiens, total growth inhibition (cytostatic effect)): 2.85 µM | GI50 (LoVo-Dox): 0.316 µM | CC50 (PANC-1; Homo sapiens, PANC-1, PANC-1, cell killing (cytotoxic effect)): 9.26 µM | IC (TGI) (PANC-1; Homo sapiens, PANC-1, PANC-1, total growth inhibition (cytostatic effect)): 2.37 µM | GI50 (PANC-1; PANC-1): 0.127 µM | GI50 (DU-145; DU-145): 0.023 µM | CC50 (DU-145; DU-145, cell killing (cytotoxic effect)): 0.0748 µM | TGI DU-145 (DU-145; DU-145, total growth inhibition (cytostatic effect)): 4.16E−08 Molar | CC50 (LoVo; Homo sapiens, LoVo, cell killing (cytotoxic effect)): 0.868 µM | IC (TGI) (LoVo; Homo sapiens, LoVo, total growth inhibition (cytostatic effect)): 0.405 µM | GI50 (LoVo; LOVO): 0.189 µM | GI50 (LNCaP): 0.127 µM | CC50 (LNCaP; [1]): 4.1 µM | TGI LN-caP (LNCaP; [2]): 9.44E−07 Molar | GI50 (A-549; A-549): 0.0914 µM | CC50 (A-549; Homo sapiens, A549, A-549, cell killing (cytotoxic effect)): 3.55 µM | IC (TGI) (A-549; Homo sapiens, A549, A-549, total growth inhibition (cytostatic effect)): 1.02 µM | GI50 (HeLa): 0.0422 µM | CC50 (HeLa; [1]): 3.34 µM | IC (TGI) (HeLa; [2]): 1.23 µM | GI50 (SK-MEL-28; MEL-28): 0.0444 µM | CC50 (SK-MEL-28; MEL-28, cell killing (cytotoxic effect)): 4.6 µM | TGI MEL-28 (SK-MEL-28; MEL-28, total growth inhibition (cytostatic effect)): 2.45E−07 Molar | CC50 (K-562; Homo sapiens, K562, K-562, cell killing (cytotoxic effect)): 9.26 µM | IC (TGI) (K-562; Homo sapiens, K562, K-562, total growth inhibition (cytostatic effect)): 3.06 µM | GI50 (K-562; K-562): 0.092 µM | GI50 (IGROV): 0.0763 µM | CC50 (IGROV; [1]): 1.55 µM | TGI IGROV (IGROV; [2]): 3.18E−07 Molar | GI50 (SK-BR-3; SK-BR-3): 0.202 µM | CC50 (SK-BR-3; SK-BR-3, cell killing (cytotoxic effect)): 4.21 µM | TGI SK-BR-3 (SK-BR-3; SK-BR-3, total growth inhibition (cytostatic effect)): 1.07E−06 Molar | GI50 (HeLa-APL): 0.0779 µM | CC50 (HeLa-APL; [1]): 3.71 µM | IC (TGI) (HeLa-APL; [2]): 1.5 µM

COc1cc(-c2c3c4cc(OC)c(OC(C)C)cc4oc(=O)c3n3ccc4c([N+](=O)[O-])cccc4c23)ccc1OC(C)C [Compound 54]
GI50 (IGROV-ET; Homo sapiens): 6.64 µM | CC50 (IGROV-ET; [3]): 17.2 µM | IC (TGI) (IGROV-ET; Homo sapiens, TGI=total growth inhibition (cytostatic effect), read-out: TGI IGROV-ET): 17.2 µM | GI50 (HT-29; Homo sapiens, HT-29, HT-29): 1.52 µM | CC50 (HT-29; Homo sapiens, HT-29, HT-29, LC=cell killing (cytotoxic effect)): 17.2 µM | IC (TGI) (HT-29; Homo sapiens, HT-29, HT-29, TGI=total growth inhibition (cytostatic effect)): 17.2 µM | GI50 (LoVo-Dox; Homo sapiens): 12.5 µM | CC50 (LoVo-Dox; [3]): 17.2 µM | IC (TGI) (LoVo-Dox; Homo sapiens, TGI=total growth inhibition (cytostatic effect)): 17.2 µM | GI50 (PANC-1; Homo sapiens, PANC-1, PANC-1): 0.711 µM | CC50 (PANC-1; Homo sapiens, PANC-1, PANC-1, LC=cell killing (cytotoxic effect)): 17.2 µM | IC (TGI) (PANC-1; Homo sapiens, PANC-1, PANC-1, TGI=total growth inhibition (cytostatic effect)): 2.59 µM | GI50 (DU-145; Homo sapiens, DU-145, DU-145): 2.88 µM | CC50 (DU-145; Homo sapiens, DU-145, DU-145, LC=cell killing (cytotoxic effect)): 17.2 µM | IC (TGI) (DU-145; Homo sapiens, DU-145, DU-145, TGI=total growth inhibition (cytostatic effect), read-out: TGI DU-145): 7.16 µM | GI50 (LoVo; Homo sapiens, LoVo): 3.4 µM | CC50 (LoVo; Homo sapiens, LoVo, LC=cell killing (cytotoxic effect)): 17.2 µM | IC (TGI) (LoVo; Homo sapiens, LoVo, TGI=total growth inhibition (cytostatic effect)): 8.94 µM | GI50 (LNCaP; Homo sapiens, LNCaP): 1.71 µM | CC50 (LNCaP; Homo sapiens, LNCaP, LC=cell killing (cytotoxic effect)): 11.1 µM | IC (TGI) (LNCaP; Homo sapiens, LNCaP, TGI=total growth inhibition (cytostatic effect), read-out: TGI LN-caP): 4.34 µM | GI50 (A-549; Homo sapiens, A549, A-549): 2.85 µM | CC50 (A-549; Homo sapiens, A549, A-549, LC=cell killing (cytotoxic effect)): 17.2 µM | IC (TGI) (A-549; Homo sapiens, A549, A-549, TGI=total growth inhibition (cytostatic effect)): 15.1 µM | GI50 (HeLa): 0.616 µM | CC50 (HeLa; [4]): 17.2 µM | IC (TGI) (HeLa; [5]): 2.71 µM | GI50 (SK-MEL-28; Homo sapiens, SK-MEL-28, MEL-28): 1.53 µM | CC50 (SK-MEL-28; Homo sapiens, SK-MEL-28, MEL-28, LC=cell killing (cytotoxic effect)): 17.2 µM | IC (TGI) (SK-MEL-28; Homo sapiens, SK-MEL-28, MEL-28, TGI=total growth inhibition (cytostatic effect), read-out: TGI MEL-28): 5.7 µM | GI50 (K-562; Homo sapiens, K562, K-562): 3.76 µM | CC50 (K-562; Homo sapiens, K562, K-562, LC=cell killing (cytotoxic effect)): 17.2 µM | IC (TGI) (K-562; Homo sapiens, K562, K-562, TGI=total growth inhibition (cytostatic effect)): 14.2 µM | GI50 (IGROV; Homo sapiens): 0.884 µM | CC50 (IGROV; [3]): 13.3 µM | IC (TGI) (IGROV; Homo sapiens, TGI=total growth inhibition (cytostatic effect), read-out: TGI IGROV): 4.02 µM | GI50 (SK-BR-3; Homo sapiens, SK-BR-3, SK-BR-3): 1.05 µM | CC50 (SK-BR-3; Homo sapiens, SK-BR-3, SK-BR-3, LC=cell killing (cytotoxic effect)): 17.2 µM | IC (TGI) (SK-BR-3; Homo sapiens, SK-BR-3, SK-BR-3, TGI=total growth inhibition (cytostatic effect), read-out: TGI SK-BR-3): 4.31 µM | GI50 (HeLa-APL): 3.83 µM | CC50 (HeLa-APL; [4]): 17.2 µM | IC (TGI) (HeLa-APL; [5]): 17.2 µM
